Measurements from publication PMC9860980, “Pharmacokinetics and Pharmacodynamics (PK/PD) of Corallopyronin A against Methicillin-Resistant Staphylococcus aureus” (Pharmaceutics, 2022).
Like-named read-outs stand apart in the source and are kept apart here.

Test: Pharmacokinetics of CorA in plasma of CD-1 mice
Format: in vivo
Details: for Tmax / CL/F / Cmax / MRT / half-life / Vd/F / AUC0-t: CD-1 mice; for Vd/F: read-out: Vz/F_obs
Protocol: For pharmacokinetic (PK) experiments, 6–8-week-old outbred female CD-1 mice (Charles River, Germany) were used. CorA was dissolved in PEG400/phosphate-buffered saline (PBS) (80:20 (v/v)). CorA was administered once daily at 60 mg/kg intraperitoneally (IP), 100 mg/kg IP, 100 mg/kg subcutaneously (SC) and 100 mg/kg perorally (PO). Moreover, CorA was administered at 30 mg/kg IP twice a day (BID) (administration time points t = 0 and 6 h after first dose). Animals (n = 3 per time point) receiving either 60 mg/kg IP or 100 mg/kg IP were euthanized at 10, 15, 30, 60 and 180 min after administration. Animals (n = 3 per time point) receiving 30 mg/kg IP BID were euthanized at 0.167, 0.25, 0.5, 1, 3, 5.75, 6.167, 6.25, 6.5, 7 and 9 h after first administration. Animals (n = 3 per time point) receiving 100 mg/kg SC or 100 mg/kg PO were euthanized at 0.25, 1, 2, 4 and 8 h after administration. At every time point blood was removed from the heart, collected into tubes coated with 0.5 M ethylenediaminetetraacetic acid (EDTA), immediately spun down at 15,870× g for 10 min at 4 °C and the resultant plasma transferred into a new tube. Furthermore, at every time point heart, lung, brain, liver, spleen, kidneys, and thigh muscles were removed and frozen in liquid nitrogen. For animals receiving 100 mg/kg PO also rectum (without feces), pharynx, skin, vaginal tract, subcutaneous fat tissue, visceral fat tissue and tibiae were removed and frozen in liquid nitrogen. Before removing the vaginal tract, a vaginal flush was performed.
CorA plasma concentrations were quantified by HPLC-DAD with an Alliance e2695 separation module and a 2998 PDA detector (Waters, Eschborn, Germany). For the analysis, blood samples were centrifuged for 10 min at 4 °C and 3220× g. The generated plasma (20 µL) was mixed 1:3 with ice-cold acetonitrile, vortexed for 10 s and centrifuged for 25 min at 4 °C and 11,000× g. The supernatant was transferred into a HPLC vial and a sample volume of 5 µL was injected and quantified at a wavelength of 300 nm. A Waters XBridge® Shield RP18 column (3.5 μm, 2.1 × 100 mm, 130 A) was used at 30 °C. Two solvent gradients comprising mobile phase A (acetonitrile/water 5/95 with 5 mM ammonium acetate and 40 μL acetic acid per liter) and mobile phase B (acetonitrile/water 95/5 with 5 mM ammonium acetate and 40 μL acetic acid per liter) with a gradient from 70%A/30%B to 20%A/80%B, stepwise within 30 min and a flow rate of 0.3 mL/min were used. Data were analyzed by Empower 3 software and quantified using an external reference standard. No major matrix effects were seen when mixing ACN containing CorA with plasma.
Caffeine was used as an internal standard.

[1] = female, mouse, plasma, 30 mg/kg IP (BID), mean ± SD
[2] = female, mouse, plasma, 60 mg/kg IP, mean ± SD
[3] = female, mouse, plasma, 100 mg/kg IP, mean ± SD
[4] = female, mouse, plasma, 100 mg/kg PO

## C/C=C/C/C=C(\C)C(O)CC/C(C)=C/C=C(\C)C(=O)c1c(O)cc([C@H](C)CC/C=C/NC(=O)OC)oc1=O (some centres unmarked) [CorA, Corallopyronin A]
100 mg/kg PO
  time CorA was found in plasma after dosing: up to 8 h
100 mg/kg PO vs 100 mg/kg IP or SC
  exposure in plasma lower compared to the same dose administered IP or SC: 3- to 4 fold
female, CD-1, mouse, plasma, ip, 30 mg/kg, 30 mg/kg IP (BID), mean ± SD
  Tmax: 0.19 h
female, CD-1, mouse, plasma, ip, 60 mg/kg, 60 mg/kg IP, mean ± SD
  Tmax: 0.19 h
female, CD-1, mouse, plasma, ip, 100 mg/kg, 100 mg/kg IP, mean ± SD
  Tmax: 0.19 h
female, CD-1, mouse, plasma, po, 100 mg/kg, 100 mg/kg PO
  Tmax: 0.5 ± 0.4 h
female, CD-1, mouse, plasma, sc, 100 mg/kg, 100 mg/kg SC, mean ± SD
  Tmax: 3.33 ± 1.2 h
female, CD-1, mouse, plasma, subcutaneous, 100 mg/kg SC, 8 h after dosing
  concentration at 8 h: > 10 µg/mL
[1]
  CL/F: 0.89 mL/min/kg
  Cmax: 194 ± 15.6 µg/mL
  MRT: 3.61 ± 0.6 h
  half-life: 2.33 ± 0.3 h
  Vd/F: 0.18 L/kg
[2]
  CL/F: 1.8 mL/min/kg
  Cmax: 416 ± 39.1 µg/mL
  MRT: 1.55 ± 0.2 h
  half-life: 1.1 ± 0.2 h
  Vd/F: 0.17 L/kg
[3]
  CL/F: 3.43 ± 0.4 mL/min/kg
  Cmax: 349 ± 12.4 µg/mL
  MRT: 2.51 ± 1 h
  half-life: 1.87 ± 0.8 h
  Vd/F: 0.54 ± 0.2 L/kg
[4]
  CL/F: 16.4 ± 4 mL/min/kg
  Cmax: 89.8 ± 43.8 µg/mL
  MRT: 3.13 ± 0.2 h
  half-life: 2.88 ± 0.6 h
  Vd/F: 4.09 ± 1.3 L/kg
female, mouse, plasma, 100 mg/kg PO, read-out: AUC 0-t
  AUC0-t: 94 ± 27.1 µg·h/mL
female, mouse, plasma, 100 mg/kg SC, mean ± SD
  Cmax: 107 ± 59.2 µg/mL
plasma, 30 mg/kg IP (BID), mean ± SD
  AUC0-t: 303.88 ± 21.9 µg·h/mL
plasma, 60 mg/kg IP, mean ± SD
  AUC0-t: 463.87 ± 18.8 µg·h/mL
plasma, 100 mg/kg IP, mean ± SD
  AUC0-t: 339.53 ± 28.4 µg·h/mL
plasma, 100 mg/kg PO vs 100 mg/kg IP
  Cmax lower compared to the same dose administered IP: 3- to 4 fold
plasma, 100 mg/kg SC, mean ± SD
  AUC0-t: 459.32 ± 238.2 µg·h/mL
